Source: patent publication US20090143279A1 (priority 2007, published 2009)
Like-named read-outs stand apart in the source and are kept apart here.

Assays:
[1] = tested on: mitochondrial membrane potential; assay type: cell-based, mouse; details: for ΔΨm (composite Z-score): normalized score vs mock-treated (DMSO) wells
reactive oxygen species = assay type: cell-based, mouse; details: for ROS levels: primary screen, in words; for ROS (composite Z-score): normalized score vs mock-treated (DMSO) wells
OXPHOS gene expression = assay type: cell-based, mouse; details: for OXPHOS expression: primary screen, in words; for GE-HTS (composite Z-score): normalized score vs mock-treated (DMSO) wells
nuOXPHOS transcripts = assay type: cell-based, mouse; details: for nucOX (composite Z-score): normalized score vs mock-treated (DMSO) wells
mtOXPHOS transcripts = assay type: cell-based, mouse; details: for mitoOX (composite Z-score): normalized score vs mock-treated (DMSO) wells
cytochrome c = assay type: cell-based, mouse; details: for cyt c (composite Z-score): normalized score vs mock-treated (DMSO) wells
cytochrome c, sequence (P62897 whole entry): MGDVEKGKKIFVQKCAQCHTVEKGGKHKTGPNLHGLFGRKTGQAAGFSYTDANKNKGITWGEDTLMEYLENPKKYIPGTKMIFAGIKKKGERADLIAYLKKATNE

Atp5a1 = test: Quantitative PCR of Atp5a1 (nuOXPHOS) expression; assay type: cell-based, mouse; details: for increase of Atp5a1 expression: compound alone, FIG. 6d
Description: (§1) (a) Compounds indicated in FIG. 4 were retested at 20 nM, 200 nM, 2 μM and 20 μM. Gene expression levels are represented as a row-normalized heat map, with negative controls (DMSO treatment) and positive controls (PGC-1α treatment) shown. Dose-response curves for ROS levels and viability are also provided, where the y-axis is the composite Z-score. Shaded area indicates the noise envelope (P<0.05). Data shown are the results of four biological replicates per concentration. […] (c) Quantitative PCR measurement of Ppargc1a gene expression, in response to either DMSO alone (Con), 5 μM deoxysappanone B (deo) or 1 μM mebendazole (meb). (d) Quantitative PCR measurement of the nuclear OXPHOS gene Atp5a1. Cells were either treated with compound alone (black bars) or in combination with […] of the ERRa inverse agonist XCT790 (gray bars). (e) Quantitative PCR measurement of Sod2, which encodes the ROS scavenger MnSOD, as in (d). Means and s.d. of expression data are the result of four biological replicates.
(§2) FIG. 8 show measurements of the coupling between nuclear and mitochondrial OXPHOS gene expression. (a) A two-dimensional plot of the composite Z-scores for nuOXPHOS and mtOXPHOS expression is shown. (b) Row-normalized heat map displaying the top 15 compounds in each quadrant (I-IV). Heat map of nuOXPHOS and mtOXPHOS expression is shown along with ATP levels. (c) Real-time PCR validation of select compounds at the indicated doses, using Atp5a1 (nuOXPHOS) and mt-Co1 (mtOXPHOS) normalized to Hprt1 (internal control). Values indicate average fold change from mock-treated (DMSO) wells ±s.d. in four biological replicates.
(§3) Gene expression. […]. The cDNA was then used for real-time PCR quantification of products for mouse Atp5a1 (Mm00431960_ml), Sod2 (MnSOD; Mm01313000_m1) and Ppargc1a (Mm00447183_m1), with Hprt1 (Mm03024075_m1) serving as an internal control, using TaqMan gene-expression assays (Applied Biosystems).

mt-Co1 = test: Real-time PCR of mt-Co1 (mtOXPHOS) expression; assay type: cell-based, mouse; details: 1 μM, FIG. 8c
Excerpt: as §2, §3

C2C12 myotubes = details: for Viability (composite Z-score): normalized score vs mock-treated (DMSO) wells
[2] = tested on: cellular dehydrogenase activity; details: for MTT (composite Z-score): normalized score vs mock-treated (DMSO) wells
Sod2 = test: Quantitative PCR of Sod2 (MnSOD) expression; assay type: cell-based, mouse; details: in combination with compound, FIG. 6e
Description: as §1, §3

microtubules = test: Tubulin immunofluorescence; assay type: cell-based, mouse; details: C2C12 myotubes, 48 hours, 10 nM to 10 μM, FIG. 7
Description: Tubulin immunofluorescence. […] Cells were washed once in 50 μl PBSTB2 (PBS with 0.1% (vol/vol) Tween-20 and 2% (wt/vol) BSA) and blocked in PBSTB2 for 1 h at room temperature or overnight at 4° C. Cells were incubated with an anti-α-tubulin (Sigma-Aldrich) antibody, 1:1,000 in PBSTB2, for 1 h at room temperature, and then washed three times with PBSTB2. […] Cells were visualized using an automated microscope (IX-Micro, Molecular Devices).

Ppargc1a = test: Quantitative PCR of Ppargc1a expression; assay type: cell-based, mouse; details: 5 μM deoxysappanone B or 1 μM mebendazole, FIG. 6c
Description: as §1, §3

[3] = composite Z-score vs DMSO, Conc 14.22 μM
[4] = composite Z-score vs DMSO, Conc 20 μM
[5] = normalized composite Z-score vs mock-treated (DMSO) wells, Conc 20 μM
[6] = Table 3, differentiated C2C12 myotubes, 48 h treatment, composite Z-score vs DMSO
[7] = Table 6, C2C12 myotubes, 48 h, composite Z-score
[8] = retest at 20 nM to 20 μM, FIG. 6a
[9] = Table 7, C2C12 myotubes, 48 h, composite Z-score
[10] = 13.54 μM, composite Z-score vs DMSO
[11] = 20 μM, composite Z-score vs DMSO
[12] = Table 4, C2C12 myotubes, 48 h, composite Z-score
[13] = composite Z-score vs mock-treated (DMSO) wells, Conc 20 μM

C[C@@H]1C[C@@H]([C@H](O)CC2CC(=O)NC(=O)C2)C(=O)[C@@H](C)C1 [Cycloheximide, reference compound]
ΔΨm [1, 3]: 2.318
ΔΨm [1, 4]: 2.759
ROS (reactive oxygen species; [3]): −3.415
ROS (reactive oxygen species; [4]): −2.628
GE-HTS (OXPHOS gene expression; [3]): −0.504
GE-HTS (OXPHOS gene expression; [4]): −1.482
nucOX (nuOXPHOS transcripts; [3]): 1.354
nucOX (nuOXPHOS transcripts; [4]): 0.688
nuOXPHOS expression (nuOXPHOS transcripts; screen, relative to mtOXPHOS, in words): preferentially increase
mitoOX (mtOXPHOS transcripts; [3]): −4.179
mitoOX (mtOXPHOS transcripts; [4]): −5.637
cyt c (cytochrome c; [3]): −1.378
cyt c (cytochrome c; [4]): −2.123
nuOXPHOS elevated (Atp5a1; 1 μM, real-time PCR, FIG. 8c): 1.3 fold
mtOXPHOS decreased (mt-Co1): 2.4 fold
Viability (C2C12 myotubes; [3]): −2.540
Viability (C2C12 myotubes; [4]): −2.804
MTT [2, 3]: −3.550
MTT [2, 4]: −3.499

COc1cc(/C=C(\C#N)C(=O)Nc2nnc(C(F)(F)F)s2)ccc1OCc1ccc(C(F)(F)F)cc1C(F)(F)F [XCT790]
effect of XCT790 on compound-induced Atp5a1 increase (Atp5a1; in combination with mebendazole or deoxysappanone B, 5 mM XCT790, FIG. 6d): completely inhibited
effect of XCT790 on compound-induced MnSOD increase (Sod2): suppressible

COc1ccc2c(c1)OCC(Cc1ccc(O)c(OC)c1)C2=O (stereo not drawn) [deoxysappanone b 7,3′-dimethyl ether, reference compound]
ΔΨm [1, 5]: −0.637
ROS Zscore (reactive oxygen species; [6]): −1.712
ROS Zscore (reactive oxygen species; [7]): −1.712
ROS (reactive oxygen species; [5]): −1.712
dose at which ROS levels decreased (reactive oxygen species; [8]): 2 µM
GEHTS_Zscore (OXPHOS gene expression; [6]): 2.577
GEHTS_Zscore (OXPHOS gene expression; [7]): 2.577
GE-HTS (OXPHOS gene expression; [5]): 2.118
dose at which OXPHOS expression increased (OXPHOS gene expression; [8]): 2 µM
nucOXPHOS Z (nuOXPHOS transcripts; [9]): 2.25
nucOX (nuOXPHOS transcripts; [5]): 2.250
mito-OXPHOS Z (mtOXPHOS transcripts; [9]): 1.38
mitoOX (mtOXPHOS transcripts; [5]): 1.383
cyt c (cytochrome c; [5]): −0.951
potency required for microtubule disruption (microtubules): the same as that required to affect OXPHOS expression and ROS level
expression of Ppargc1α (Ppargc1a): approximately threefold
increase of Atp5a1 expression (Atp5a1): 20%
Viability (C2C12 myotubes; [5]): −1.120
MTT [2, 5]: −2.870

COC(=O)Nc1nc2ccc(C(=O)c3ccccc3)cc2[nH]1 [mebendazole, methyl[5-benzoyl-benzimidazol-2-carbamate], reference compound]
ΔΨm [1, 10]: −0.054
ΔΨm [1, 11]: −0.434
ROS (reactive oxygen species; [10]): −0.791
ROS (reactive oxygen species; [11]): −1.003
ROS Zscore (reactive oxygen species; [6]): −1.003
ROS levels (reactive oxygen species): suppressing ROS levels
dose at which ROS levels decreased (reactive oxygen species; [8]): 2 µM
GE-HTS (OXPHOS gene expression; [10]): 0.013
GE-HTS (OXPHOS gene expression; [11]): 1.160
GEHTS_Zscore (OXPHOS gene expression; [6]): 2.846
OXPHOS expression (OXPHOS gene expression): boost OXPHOS expression
dose at which OXPHOS expression increased (OXPHOS gene expression; [8]): 2 µM
nucOX (nuOXPHOS transcripts; [10]): −0.200
nucOX (nuOXPHOS transcripts; [11]): 1.212
mitoOX (mtOXPHOS transcripts; [10]): 0.398
mitoOX (mtOXPHOS transcripts; [11]): 0.824
cyt c (cytochrome c; [10]): −0.685
cyt c (cytochrome c; [11]): −1.473
expression of Ppargc1α (Ppargc1a): approximately threefold
increase of Atp5a1 expression (Atp5a1): 20%
Viability (C2C12 myotubes; [10]): 0.064
Viability (C2C12 myotubes; [11]): 0.512
MTT [2, 10]: −2.797
MTT [2, 11]: −2.060

CC(=O)O[C@H]1C(=O)[C@@]2(C)[C@H]([C@H](OC(=O)c3ccccc3)[C@]3(O)C[C@H](OC(=O)[C@H](O)[C@@H](NC(=O)c4ccccc4)c4ccccc4)C(C)=C1C3(C)C)[C@]1(OC(C)=O)CO[C@@H]1C[C@@H]2O [paclitaxel, reference compound]
ROS Zscore (reactive oxygen species; [6]): −1.967
ROS levels (reactive oxygen species): suppressing ROS levels
dose showing effect on ROS level (reactive oxygen species; [8]): 20 nM
GEHTS_Zscore (OXPHOS gene expression; [6]): 2.451
OXPHOS expression (OXPHOS gene expression): boost OXPHOS expression
dose showing effect on OXPHOS expression (OXPHOS gene expression; [8]): 20 nM
potency required for microtubule disruption (microtubules): the same as that required to affect OXPHOS expression and ROS level

isoduartin methyl ether [reference compound]
ΔΨm (composite Z-score) ([1]; Conc 20 μM): −0.777
ΔΨm ([1]; Table 4, C2C12 myotubes, 48 h, JC-1, composite Z-score): −0.777
ROS (composite Z-score) (reactive oxygen species; Conc 20 μM): 0.599
ROS (reactive oxygen species; [12]): 0.599
GE-HTS (composite Z-score) (OXPHOS gene expression; Conc 20 μM): −0.182
nucOX (composite Z-score) (nuOXPHOS transcripts; Conc 20 μM): −0.008
mitoOX (composite Z-score) (mtOXPHOS transcripts; Conc 20 μM): −0.434
cyt c (composite Z-score) (cytochrome c; Conc 20 μM): 0.882
Viability (composite Z-score) (C2C12 myotubes; Conc 20 μM): −0.603
Viability (C2C12 myotubes; [12]): −0.603
MTT (composite Z-score) ([2]; Conc 20 μM): −2.055
MTT [2, 12]: −2.055

khayanthone
ΔΨm [1, 13]: 0.962
ROS (reactive oxygen species; [13]): 0.015
GE-HTS (OXPHOS gene expression; [13]): 1.491
nucOX (nuOXPHOS transcripts; [13]): 1.510
mitoOX (mtOXPHOS transcripts; [13]): 1.095
cyt c (cytochrome c; [13]): −0.669
Viability (C2C12 myotubes; [13]): 1.156
MTT [2, 13]: −0.382

mepartricin
ΔΨm (composite Z-score) ([1]; Conc 20 μM): −0.309
ROS (composite Z-score) (reactive oxygen species; Conc 20 μM): −0.251
GE-HTS (composite Z-score) (OXPHOS gene expression; Conc 20 μM): −0.710
nucOX (composite Z-score) (nuOXPHOS transcripts; Conc 20 μM): −0.728
mitoOX (composite Z-score) (mtOXPHOS transcripts; Conc 20 μM): −0.464
cyt c (composite Z-score) (cytochrome c; Conc 20 μM): 0.264
Viability (composite Z-score) (C2C12 myotubes; Conc 20 μM): −0.568
MTT (composite Z-score) ([2]; Conc 20 μM): −1.431
